Columns and labels:
[1] = tested on: SKMEL-28 cells; test: 2-D gel electrophoresis proteomic analysis; format: cell-based
Procedure: Protein was isolated from the treated and control flask after 4, 8, 12, and 24 hours. For isolation of proteins, cells were washed three times with 5 mL of ice cold PBS at a pH of 7.4. The cells were then scraped in 3 mL of PBS, pelleted by centrifuge, and re-suspended in a lysis buffer at pH 7.4 (80 mM TRIS-HCl, 1% SDS, with protease and phosphotase inhibitors). Protein concentrations were quantified using the BCA method.
The gels were run in duplicate.
The first experimental set processed and evaluated by Western blot and 2-D gel electrophoresis was the skin cancer cell line SKMEL-28.
A comparative analysis of 943 spots across all twenty-four gels was performed, comparing the control sample against all of the treated samples. The analysis included the identification of spot changes over the time course due to increase, decrease, or post-translational modification.
The analysis found thirty-two statistically significant differential spot changes. […] The characterized peptides were searched against protein databases with Mascot and MSRAT software analysis to identify the protein (Table 2).

[2] = tested on: SCC cells; test: Real-time PCR Diabetes Array; format: cell-based
From the text: The control cells were untreated cells.

[3] = tested on: MCF-7 breast cancer cells; test: OCR and ECAR, SeaHorse XF analyzer; format: cell-based
From the text: (SeaHorse Biosciences Inc, North Billerica, Mass.).
In contrast, cancer cells (e.g., MCF-7, PaCa-2) are inherently primed to culture at higher levels of glucose compared to normal cells due to their glycolytic phenotype for maintenance in culture.

[4] = tested on: HepG2 (liver cancer) cells; test: Real-time PCR Diabetes Array; format: cell-based; settings: 100 μM Q10
Procedure: The treatment was initiated on 1×10^5 cells per well, following the procedure utilized in the PaCa2 cells (above, Examples 9-11). However, the total amount of RNA that was extracted from these samples was lower than expected. Reverse transcription is normally done using 1 μg of total RNA (determined by measurement at 260 nm). The maximum volume that can be used per reverse transcription is 8 μl.

[5] = tested on: SK-MEL-28 mitochondria; settings: human, 48 h, 100 µM
Procedure: Cells were centrifuged, pelleted, flash frozen and stored at −80° C. until the mitochondria were isolated. Cell pellets were thawed, resuspended and ruptured in Dounce homogenizer. The homogenate was centrifuged and mitochondria were isolated using reagents and the protocol recommended by the Mitochondria Isolation kit for Cultured cells (MitoSciences, Eugene Oreg., Cat #MS852). The mitochondrial fraction was aliquoted and stored at −80° C.
Analysis was by LC-MS/MS on a Waters Quattro II triple quadrupole mass spectrometer with a Prism RP 1×100 mm, 5 μm particle size column (Keystone Scientific). Isocratic elution with 4 mM ammonium formate in 20% isopropyl alcohol 80% methanol at a flow rate of 50 μl/min. Ten μl of each sample was injected.

[6] = tested on: Pancreatic Cancer Cells (PaCa2); test: Real-time PCR Angiogenesis Array; format: cell-based
Procedure: Experiments were carried out essentially as described above.

[7] = tested on: Pyruvate Kinase M2 (PKM2); test: Western blot, Pyruvate Kinase M2 levels; format: cell-based, human; settings: cancer cells tested
Procedure: The samples were processed and run on a 4-12% Bis-Tris Novex NuPAGE gel as described above. The gels were run, transferred and stained essentially as described above.
The lactate dehydrogenase blots were stripped by incubating for 30 minutes with methanol, followed by two 10 minute washes with TBS-T, then 30 minutes of incubation with Stripping buffer at 50 deg C., and followed by two washes with 100 ml or more of TBS-T for 30′ each. The 2 blots were scanned in laser scanner to check for complete stripping. The blots were activated with methanol for 5 seconds, washed with water for 5 minutes, and TBST for 15 minutes. The blots were blocked for 1 hour with 5% blocking reagent in TBS-T at room temperature and then washed 3 times with TBS-T (1X−15′; 2X5′ each) and probed with the rabbit polyclonal antibody for Pyruvate Kinase M2 in 5% BSA (NOVUS BIOLOGICALS catalog #H00005315-D01P) at 1:500 dilution overnight at 4 deg C. with shaking. After the overnight incubation with primary antibody for Pyruvate Kinase M2, the membranes were washed 3 times with TBS-T (1X−15′; 2X5′ each) and probed with the secondary antibody (antirabbit; 1:10,000 dilution) for 1 h on the orbital tilting shaker at room temperature. […]

COC1=C(OC)C(=O)C(C/C=C(\C)CC/C=C(\C)CC/C=C(\C)CC/C=C(\C)CC/C=C(\C)CC/C=C(\C)CC/C=C(\C)CC/C=C(\C)CC/C=C(\C)CCC=C(C)C)=C(C)C1=O [Q10, Coenzyme Q10]
Transaldolase 1 level [1]: decrease of Transaldolase 1
TNFRSF1A Regulation ([2]; 100 μM Q10, at 6 and 24 hours): Down regulated at 6
G6PD Regulation ([2]; 100 μM Q10, at 6 hours): Down regulated at 6
ICAM1 Regulation ([2]; 100 μM Q10, at 6 hours): Down regulated at 6
INPPL1 Regulation ([2]; 100 μM Q10, at 6 hours): Down regulated at 6
NOS3 Regulation ([2]; 100 μM Q10, at 6 hours): Down regulated at 6
PIK3CD Regulation ([2]; 100 μM Q10, at 6 hours): Down regulated at 6
PPARA Regulation ([2]; 100 μM Q10, at 6 hours): Down regulated at 6
PYGL Regulation ([2]; 100 μM Q10, at 6 hours): Down regulated at 6
SREBF1 Regulation ([2]; 100 μM Q10, at 6 hours): Down regulated at 6
STXBP2 Regulation ([2]; 100 μM Q10, at 6 hours): Down regulated at 6
TNF Regulation ([2]; 100 μM Q10, at 6 hours): Down regulated at 6
VEGFA Regulation ([2]; 100 μM Q10, at 6 hours): Down regulated at 6
OCR values [3]: consistent reduction in OCR values
PPARGC1A regulation ([4]; HepG2, 48 hours): normalized or were slightly upregulated
PRKAA1 regulation ([4]; HepG2, 48 hours): normalized or were slightly upregulated
genes regulated in the Diabetes Arrays ([4]; HepG2 cells, genes: PPARGC1A, PRKAA1, SNAP25): List of genes regulated in the Diabetes Arrays when HepG2 cells
Q10H2 [5]: 0.28 ng/Sample
increase in the levels of Q10H2 [5]: 3 fold
angiogenesis array genes (AKT1, ANGPTL4 ... VEGFA, VEGFB as listed) ([6]; 100 uM Q10): modulated by Q10 treatment
genes from the angiogenesis array whose expression is regulated ([6]; 100 μM Q10, genes: ANGPTL4, CDH5, FGF1, AKT1, ANPEP, CCL2, CXCL1, EDG1, EFNB2, EGF, ILIB, IL8, KDR, NRP1, PECAM1, PROK2, SPHK1, STAB1, VEGFA): A list of genes from the angiogenesis array whose expression is regulated
PKM2 expression [7]: dose-dependent decrease in the PKM2 expression

— patent US10519504B2, “Methods for treatment of oncological disorders using epimetabolic shifters, multidimensional intracellular molecules, or environmental influencers” (Berg LLC, priority 2009, dated 2019)
